US11684616B2, “Azalactam compounds as HPK1 inhibitors” (PFIZER INC., priority 2020, dated 2023)
Where two headings read alike, the source gives them in different places.

Legend:
[1] = target: human full-length autophosphorylated recombinant HPK1 (Homo sapiens (Human), UniProt Q92918); assay: HPK1 biochemical enzyme assay (chelation-enhanced fluorescence, CHEF); settings: 0.5 nM HPK1, 45 μM ATP, Morrison fit
Protocol: HPK1 Biochemical Enzyme Assay
HPK1 enzyme inhibition was measured by using the fluorescence-based chelation-enhanced fluorescence (CHEF) method (1), and by using a proprietary fluorescent peptide substrate, in which a cysteine residue is alkylated with a sulfonamido-oxine-based derivative to afford an amino acid termed C-Sox (CSx). […] Initial reaction velocities were determined by following the peptide fluorescence (λex=360 nm, λem=500 nm) at 30° C. for 15 min in a Tecan M1000 plate reader (Tecan Group Ltd., Mannedorf, Zurich, Switzerland).
Production of Autophosphorylated Full-Length Recombinant HPK1
The DNA sequence encoding full-length human HPK1 (Genbank NM_001042600.2) was synthesized at GenScript and contained a limited number of silent base changes to eliminate certain restriction endonuclease enzyme recognition sites, and fused to a DNA sequence encoding a Tobacco Etch Virus (TEV)-cleavable N-terminal polyhistidine purification tag. A recombinant baculovirus was prepared by using the Bac-to-Bac method (InVitrogen) and was used to infect 9 L of Sf21 insect cells. All purification steps were carried out at 4° C. Cells containing recombinant HPK1 were lysed in 50 mM HEPES-NaOH, pH 7.5, 250 mM NaCl, 1 mM tris(2-carboxyethyl)phosphine (TCEP), 10 μM leupeptin (Sigma), 10 μM E-64 (Sigma), and one ‘EDTA-free’ protease inhibitor tablet (Roche) per 75 mL buffer, centrifuged at 15,000×g for 1 h and the supernatant passed over 5 mL of ProBond IMAC resin (InVitrogen). After washing, HPK1 was eluted with 12.5 mL of 50 mM HEPES-NaOH, pH 7.5, 400 mM NaCl, 250 mM imidazole-HCl pH 7.5, 1 mM TCEP, 2 μM leupeptin, and 2 μM E-64. The eluted HPK1 was dialyzed overnight against 0.8 L of 50 mM HEPES-NaOH, pH 7.5, 400 mM NaCl, 20 mM imidazole-HCl pH 7.5, 1 mM TCEP, 2 μM leupeptin, 2 μM E-64, 2 mM ATP-NaOH pH 7.3, 5 mM MgCl2 and 1 mg TEV (this step simultaneously allows for reduction of the imidazole concentration in preparation for the subsequent reverse IMAC chromatography step, removal of the polyhistidine purification tag by TEV protease, and autophosphorylation of HPK1 in the presence of MgATP). The de-tagged and autophosphorylated HPK1 was adjusted to 40 mM imidazole-HCl, pH 7.5, and passed through a 10 mL column of ProBond resin similarly equilibrated. […] The peak fractions containing HPK1 were pooled and concentrated to approximately 2.5 mL by using a centrifugal concentrator (Millipore). The concentrated HPK1 was adjusted to 20% (v/v) glycerol by the addition of 50% (v/v) glycerol, resulting in a final formulation of 25 mM HEPES-NaOH pH 7.5, 250 mM NaCl, 0.25 mM TCEP and 20% (v/v) glycerol. […] Aliquots of the enzyme were flash frozen in liquid nitrogen and stored at −80° C. The final product contains a glycine-serine extension at the N-terminus of the full-length protein, as a result of the cloning strategy.

[2] = system: Phospho-SLP-76 (Ser376) in Jurkat cells; assay: Phospho-SLP-76 (Ser376) HTRF assay in anti-CD3 stimulated Jurkat cells; type: cell-based; settings: 30 min pre-treatment, anti-CD3 stimulation 15 min, read-out: pSLP76 IC50
Protocol: Cell Based Assays Phospho-SLP-76 (Ser376) Homogeneous Time Resolved Fluorescence (HTRF) Assay
Jurkat cells were seeded at 90,000 cells/well in 90 uL of RPMI1640 growth medium containing 10% FBS and incubated at 37° C. with 5% CO2 overnight. The following day, compounds were serially diluted from a 10 mM top dose for an 11-point 3-fold dilution curve in DMSO. Compounds were intermediately diluted 1:100 into growth media prior to diluting 1:10 on cells for final concentration 10 μM to 0.1 nM in 0.1% DMSO. After 30 min pre-treatment with compounds, the cells were stimulated using 200 μg/mL of F(ab)2 complexed anti-CD3 (clone UCTH1) for 15 min at 37° C. with 5% CO2. Stimulation was stopped with ice cold PBS and cells were harvested by centrifugation before lysis in Cisbio lysis buffer (Cisbio, Bedford, Mass.). Lysates were transferred to white, low-volume plates containing anti-phospho-SLP-76-Cryptate plus anti-phospho-SLP-76-d2 HTRF antibodies and incubated overnight at room temperature protected from light according to the manufacturer's protocol (Cisbio, Bedford, Mass.). HTRF was measured on a Perkin Elmer Envision and IC50 values were calculated by concentration-response curve fitting utilizing four-parameter nonlinear regression analyses.

human full-length autophosphorylated recombinant HPK1, sequence (Q92918 other isoform, or with tags, fused parts or gaps): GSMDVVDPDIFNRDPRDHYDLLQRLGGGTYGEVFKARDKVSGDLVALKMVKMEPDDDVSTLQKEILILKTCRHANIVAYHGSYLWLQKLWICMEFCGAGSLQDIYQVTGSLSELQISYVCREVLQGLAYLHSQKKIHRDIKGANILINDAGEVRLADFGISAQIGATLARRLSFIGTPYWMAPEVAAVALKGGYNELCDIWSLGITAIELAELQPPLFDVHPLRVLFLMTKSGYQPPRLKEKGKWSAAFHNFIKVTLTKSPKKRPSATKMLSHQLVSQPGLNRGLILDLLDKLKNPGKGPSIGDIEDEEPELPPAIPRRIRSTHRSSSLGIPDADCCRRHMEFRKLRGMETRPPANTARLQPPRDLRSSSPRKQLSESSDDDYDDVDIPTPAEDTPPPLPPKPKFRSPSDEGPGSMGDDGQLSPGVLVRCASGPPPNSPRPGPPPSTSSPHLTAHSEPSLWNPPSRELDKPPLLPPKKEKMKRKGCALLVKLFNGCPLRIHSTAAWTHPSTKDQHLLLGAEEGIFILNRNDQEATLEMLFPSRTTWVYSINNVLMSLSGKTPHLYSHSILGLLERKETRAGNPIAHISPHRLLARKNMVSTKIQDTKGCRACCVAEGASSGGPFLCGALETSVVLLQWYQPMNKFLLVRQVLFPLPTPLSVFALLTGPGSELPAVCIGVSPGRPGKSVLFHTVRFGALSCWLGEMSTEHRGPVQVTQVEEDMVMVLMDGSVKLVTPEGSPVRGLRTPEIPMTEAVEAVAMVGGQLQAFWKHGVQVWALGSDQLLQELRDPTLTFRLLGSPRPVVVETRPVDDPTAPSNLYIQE

Compound CCCn1cnnc1-c1cccc(N2Cc3c(cc(N4CCC[C@H]4C)nc3[C@@H](C)N)C2=O)n1 (single isomer, unassigned) [Example 101] has a Ki [1] of 0.17 nM and an IC50 ([2]; Homo sapiens, Jurkat) of 118 nM.

CCCn1cnnc1-c1cccc(N2Cc3c(cc(N4CCC[C@H]4C)nc3[C@H](C)N)C2=O)n1 (single isomer, unassigned) [Example 102] showed a Ki [1] of 0.11 nM and an IC50 ([2]; Homo sapiens, Jurkat) of 107 nM.

For CC[C@@H]1CCc2nnc(-c3cccc(N4Cc5c(cc(N6CCC[C@H]6C)nc5[C@@H](N)CC)C4=O)n3)n21 (single isomer, unassigned) [Example 16], the Ki [1] was 0.093 nM and the IC50 ([2]; Homo sapiens, Jurkat) was 487 nM.

For CCn1cnnc1-c1cccc(N2Cc3c(cc(N(C)C)nc3C(C)(C)N)C2=O)n1 [Example 132, 4-(2-aminopropan-2-yl)-6-(dimethyl-amino)-2-[6-(4-ethyl-4H-1,2,4-triazol-3-yl)pyridin-2-yl]-2,3-dihydro-1H-pyrrolo[3,4-c]pyridin-1-one], the Ki [1] was 0.38 nM and the IC50 ([2]; Homo sapiens, Jurkat) was 148 nM.

Work on CC[C@@H](N)c1nc(N2CCC[C@H]2C)cc2c1CN(c1cccc(-c3nnc4n3[C@@H](CO)CC4)n1)C2=O [Example 31, 4-[(1R)-1-aminopropyl]-2-{6-[(5R)-5-(hydroxy-methyl)-6,7-dihydro-5H-pyrrolo[2,1-c][1,2,4]triazol-3-yl]pyridin-2-yl}-6-[(2R)-2-methylpyrroli-din-1-yl]-2,3-dihydro-1H-pyrrolo[3,4-c]pyridin-1-one] yielded a Ki [1] of under 0.05 nM and an IC50 ([2]; Homo sapiens, Jurkat) of 42 nM.

For C[C@H]1CCc2nnc(-c3cccc(N4Cc5c(cc(N(C)C)nc5C(C)(C)N)C4=O)n3)n21 (single isomer, unassigned) [Example 22, 4-(2-aminopropan-2-yl)-6-(dimethyl-amino)-2-{6-[(5ξ)-5-methyl-6,7-dihydro-5H-pyrrolo[2,1-c][1,2,4]triazol-3-yl]pyridin-2-yl}-2,3-dihydro-1H-pyrrolo[3,4-c]pyridin-1-one], the Ki [1] was 0.08 nM and the IC50 ([2]; Homo sapiens, Jurkat) was 133 nM.

In the case of CCN(C)c1cc2c(c(C(C)(C)N)n1)CN(c1cccc(-c3nncn3CC)n1)C2=O [Example 124, 4-(2-aminopropan-2-yl)-6-[ethyl(methyl)amino]-2-[6-(4-ethyl-4H-1,2,4-triazol-3-yl)pyridin-2-yl]-2,3-dihydro-1H-pyrrolo[3,4-c]pyridin-1-one], the Ki [1] is reported as 0.37 nM and the IC50 ([2]; Homo sapiens, Jurkat) is reported as 98 nM.

With CC[C@H](N)c1nc(C2(C)CC2)cc2c1CN(c1cccc(-c3nncn3CC)n1)C2=O (single isomer, unassigned) [Example 120, 4-[(1ξ)-1-aminopropyl]-2-[6-(4-ethyl-4H-1,2,4-triazol-3-yl)pyridin-2-yl]-6-(1-methylcyclo-propyl)-2,3-dihydro-1H-pyrrolo[3,4-c]pyridin-1-one] the Ki [1] was 2.97 nM and the IC50 ([2]; Homo sapiens, Jurkat) was 531 nM.

For CC[C@H]1CCc2nnc(-c3cccc(N4Cc5c(cc(N6CCC[C@H]6C)nc5[C@H](N)CC)C4=O)n3)n21 (single isomer, unassigned) [Example 14], the Ki [1] was 0.93 nM and the IC50 ([2]; Homo sapiens, Jurkat) was 340 nM.

With CCn1cnnc1-c1cccc(N2Cc3c(cc(N(C)C)nc3[C@H](C)N)C2=O)n1 (single isomer, unassigned) [Example 152, 4-[(1ξ)-1-aminoethyl]-6-(dimethyl-amino)-2-[6-(4-ethyl-4H-1,2,4-triazol-3-yl)pyridin-2-yl]-2,3-dihydro-1H-pyrrolo[3,4-c]pyridin-1-one] the Ki [1] was 1.53 nM and the IC50 ([2]; Homo sapiens, Jurkat) was 191 nM.

Work on CCN(C)c1cc2c(c(C(C)(C)N)n1)CN(c1cccc(-c3nnc(C)n3CC)n1)C2=O [Example 123, 4-(2-aminopropan-2-yl)-6-[ethyl(methyl)amino]-2-[6-(4-ethyl-5-methyl-4H-1,2,4-triazol-3-yl)pyridin-2-yl]-2,3-dihydro-1H-pyrrolo[3,4-c]pyridin-1-one] yielded a Ki [1] of 0.97 nM and an IC50 ([2]; Homo sapiens, Jurkat) of 243 nM.

Work on CC[C@@H](N)c1nc(N(C)C(C)C)cc2c1CN(c1cccc(-c3nnc4n3[C@@H](C)CC4)n1)C2=O [Example 5] yielded an IC50 ([2]; Homo sapiens, Jurkat) of 31 nM.

Work on CC(C)N(C)c1cc2c(c([C@@H](C)N)n1)CN(c1cccc(-c3nnc4n3[C@@H](C)CC4)n1)C2=O [Example 21, 4-[(1R)-1-aminoethyl]-2-{6-[(5S)-5-methyl-6,7-dihydro-5H-pyrrolo[2,1-c][1,2,4]triazol-3-yl]pyridin-2-yl}-6-[methyl(propan-2-yl)amino]-2,3-dihydro-1H-pyrrolo[3,4-c]pyridin-1-one] yielded an IC50 ([2]; Homo sapiens, Jurkat) of 46 nM.

COC[C@@H](N)c1nc(C2(C)CC2)cc2c1CN(c1cccc(-c3nnc4n3[C@@H](C)CC4)n1)C2=O [Example 6a, 4-[(1)-1-amino-2-methoxyethyl]-6-(1-methylcyclopropyl)-2-{6-[(5S)-5-methyl-6,7-dihydro-5H-pyrrolo[2,1-c][1,2,4]triazol-3-yl]pyridin-2-yl}-2,3-dihydro-1H-pyrrolo[3,4-c]pyridin-1-one] gave an IC50 [2] of 69 nM.

CCCn1cnnc1-c1cccc(N2Cc3c(cc(N(C)C)nc3[C@H](C)N)C2=O)n1 [Example 137, 4-[(1S)-1-aminoethyl]-6-(dimethyl-amino)-2-[6-(4-propyl-4H-1,2,4-triazol-3-yl)pyridin-2-yl]-2,3-dihydro-1H-pyrrolo[3,4-c]pyridin-1-one] gave an IC50 ([2]; Homo sapiens, Jurkat) of 189 nM.

With CCCn1cnnc1-c1cccc(N2Cc3c(cc(N(C)C)nc3[C@@H](C)N)C2=O)n1 [Example 138, 4-[(1R)-1-aminoethyl]-6-(dimethyl-amino)-2-[6-(4-propyl-4H-1,2,4-triazol-3-yl)pyridin-2-yl]-2,3-dihydro-1H-pyrrolo[3,4-c]pyridin-1-one] the IC50 ([2]; Homo sapiens, Jurkat) was 332 nM.

Compound COC[C@@H](N)c1nc(C2(C)CC2)cc2c1CN(c1cccc(-c3nnc4n3[C@@H](C)CC4)n1)C2=O [Example 6b, 4-[(1)-1-amino-2-methoxyethyl]-6-(1-methylcyclopropyl)-2-{6-[(5S)-5-methyl-6,7-dihydro-5H-pyrrolo[2,1-c][1,2,4]triazol-3-yl]pyridin-2-yl}-2,3-dihydro-1H-pyrrolo[3,4-c]pyridin-1-one] has an IC50 [2] of 641 nM.

With CC[C@@H](N)c1nc(N(C)C)cc2c1CN(c1cccc(-c3nncn3CC)n1)C2=O (stereo in doubt) [Example 146, 4-[(1ξ)-1-aminopropyl]-6-(dimethyl-amino)-2-[6-(4-ethyl-4H-1,2,4-triazol-3-yl)pyridin-2-yl]-2,3-dihydro-1H-pyrrolo[3,4-c]pyridin-1-one] the Ki [1] was 3.14 nM.

C[C@H](N)c1nc(N2CCC[C@H]2C)cc2c1CN(c1cccc(-c3nnc4n3[C@@H](CF)CC4)n1)C2=O [Example 19, 4-[(1ξ)-1-aminoethyl]-2-{6-[(5R)-5-(fluoromethyl)-6,7-dihydro-5H-pyrrolo[2,1-c][1,2,4]triazol-3-yl]pyridin-2-yl}-6-[(2R)-2-methylpyrroli-din-1-yl]-2,3-dihydro-1H-pyrrolo[3,4-c]pyridin-1-one] was tested, and the Ki [1] was 0.15 nM.

In the case of CC[C@@H]1CCc2nnc(-c3cccc(N4Cc5c(cc(N(C)C(C)C)nc5CNC)C4=O)n3)n21 [Example 204, 2-{6-[(5R)-5-ethyl-6,7-dihydro-5H-pyrrolo[2,1-c] [1,2,4]triazol-3-yl]pyridin-2-yl}-4-[(methyl-amino)methyl]-6-[methyl (propan-2-yl)amino]-2,3-dihydro-1H-pyrrolo[3,4-c] pyridin-1-one], the Ki [1] is reported as 1.29 nM.
